Source: PMC4471147, “The Effect of Mutations on Drug Sensitivity and Kinase Activity of Fibroblast Growth Factor Receptors: A Combined Experimental and Theoretical Study” (eBioMedicine, 2015)
“And” between values parts separate entries of the source, which are not always exact repeats. Equal values may be shown once.

Columns and labels:
[1] = tested on: control (vector only) NIH 3T3 cells; assay: Cell viability assay, control NIH 3T3 cells; assay type: cell-based; settings: for effect on cell viability: concentration range up to 1 μM, 72 h
Experimental: See also Supplemental Table S2. […] See also Supplemental Table S1. C. […] Cell viability was assessed at 72 h. […]
from 3 independent assays. […]
the CellTiter-Blue Cell Viability Assay (Promega). Cells were plated in triplicate in a 96- […]
medium with inhibitor at the indicated concentration. After 3 days with the inhibitor, 20 µl […]
(Berthold technologies). Background signal was removed by subtracting the fluorescence from cell-free wells. Results are from 3 independent assays.

KIT = settings: ref Dieci et al., 2013; cited from earlier work
LYN = tested on: LYN; parameters: method as in Dieci et al., 2013; settings: ref Dieci et al., 2013; cited from earlier work
SYK = tested on: SYK; parameters: method as in Dieci et al., 2013; settings: ref Dieci et al., 2013; cited from earlier work
FGFR = settings: ref Dieci et al., 2013; cited from earlier work
PDGFα = tested on: PDGFα; parameters: method as in Dieci et al., 2013; settings: ref Dieci et al., 2013; cited from earlier work
[2] = target: vascular endothelial growth factor receptor (VEGFR); settings: cited from earlier work
[3] = target: T1, FGFR1 V561M kinase domain (Homo sapiens, UniProt P11362, V561M); assay: ADP-Glo kinase assay, FGFR1 V561M gatekeeper variant; assay type: biochemical; parameters: All kinase domain constructs were cloned into pOPINS (OPPF, Oxford, UK) or pJ821; purification tag (captured on HisTrap, removed with Ulp1 protease) (cleaved yes); made in house; host or cells: E. coli C41 (DE3) co-expressing lambda phosphatase and human CDC37 (phospho form: without the accessory plasmid); settings: for change of inhibitor sensitivity by V561M: V561M compared to wild type, in vitro kinase assay
Experimental: The ADP-Glo (Promega) methodology was used for all kinase assays following manufacturers instructions. […] In various experiments the concentrations of these components were varied and this is stated in the text or figure legends. In order to calculate valid inhibition constants (Ki), a number of kinetic parameters needed to be ascertained, in particular, the Km of the kinases for ATP. A thorough Michaelis–Menten kinetic analysis was performed ensuring that all relevant parameters were in the linear range and that the appropriate concentrations of ATP, substrate and kinase were adhered to. All data were processed using Graphpad Prism and parameters presented in Supplemental Tables.
Fig. 1 Kinase activity and inhibition of FGFR1 variants. A. Amino acid alignment of part of the hinge region of the FGFR family and a number of other tyrosine kinases with reported gatekeeper mutations. The gatekeeper residue in each case is numbered and bordered in dark grey. The FGFR 1 to 3 tyrosine that is a cysteine in FGFR4 is highlighted in light grey. B. Histogram showing the inhibition constants (Ki) for four selected compounds upon FGFR1 kinase domain protein, wild type and the indicated mutants. The data were generated from enzyme kinetic analyses using various concentrations of inhibitors and fitting using the Morrison equation within Graphpad Prism. Each data point was repeated in duplicate and the standard error of the mean is presented on each bar. C. Left panel: comparison of the activity of FGFR1 apo (WT-apo) and phosphorylated (WT-2P) kinase domain protein produced using the ADP-Glo Assay. Each data point was produced in triplicate and the standard errors are indicated. Right panel: comparison of the enzyme efficiency (kcat/Km) of FGFR1 apo and phosphorylated protein. Parameters were generated through Michaelis–Menten kinetic experiments and analysed using Graphpad Prism software. […] The data in B–D are representative for 3–4 independent experiments. See also Supplemental Tables S1 and S2.

[4] = tested on: mutations of the gatekeeper residue in all FGFR receptors; parameters: method as in Tan et al., 2014; settings: ref Tan et al., 2014; cited from earlier work
[5] = tested on: NIH 3T3 cells expressing FGFR3-TACC3 fusion protein; assay: Cell viability assay, FGFR3-TACC3 NIH 3T3 cells; assay type: cell-based; settings: increasing concentrations, 72 h
Source text: (§1) Data were fit with a one-phase association model (for presentation purposes only) using Graphpad prism. Each data point was produced in triplicate and the standard errors are indicated. […] Parameters were generated through Michaelis–Menten kinetic experiments and analysed using Graphpad Prism software. See also Supplemental Table S2. […] The data were generated from enzyme kinetic analyses using various concentrations of inhibitors and fitting using the Morrison equation within Graphpad Prism. Each data point was repeated in duplicate and the standard error of the mean is presented on each bar. See also Supplemental Table S1. C. […] Bottom panels show morphology of NIH3T3 cells expressing the indicated constructs. […] Cell viability was assessed at 72 h. […]
(§2) Cells were seeded in triplicate at 1x10^5 cells per well in 6-well plates, fed every 2-3 days and trypsinised and counted after 7 days, using a coulter counter (Beckman). […]
(§3) The amount of viable cells following culture with kinase inhibitors was measured using the CellTiter-Blue Cell Viability Assay (Promega). […] After 3 days with the inhibitor, 20 µl of cell titer blue reagent was added for 2 hours, and fluorescence measured with excitation at 540 nm and emission at 590 nm, using a Mithras LB940 plate reader (Berthold technologies). Background signal was removed by subtracting the fluorescence from cell-free wells. […]

[6] = tested on: NIH 3T3 cell line expressing FGFR3-TACC3 V555M; settings: increasing concentrations, 72 h
Source text: as §1, §2, §3

[7] = tested on: KMS-11 cells harbouring FGFR3 Y373C, V555M; parameters: method as in Chell et al., 2013; settings: 1 μM; ref Chell et al., 2013; cited from earlier work
[8] = tested on: NIH 3T3 cells expressing FGFR3 WT; assay: Cell viability assay, FGFR3 WT NIH 3T3 cells; assay type: cell-based; settings: increasing concentrations of inhibitor
Experimental: Cells were seeded in triplicate at 1x10^5 cells per well in 6-well plates, fed every 2-3 days and trypsinised and counted after 7 days, using a coulter counter (Beckman). Results are from 3 independent assays.
The amount of viable cells following culture with kinase inhibitors was measured using the CellTiter-Blue Cell Viability Assay (Promega). Cells were plated in triplicate in a 96-well plate at 2x10^3 cells/well and left to attach overnight before the addition of fresh medium with inhibitor at the indicated concentration. After 3 days with the inhibitor, 20 µl of cell titer blue reagent was added for 2 hours, and fluorescence measured with excitation at 540 nm and emission at 590 nm, using a Mithras LB940 plate reader (Berthold technologies). Background signal was removed by subtracting the fluorescence from cell-free wells. Results are from 3 independent assays.

FGFR1 WT kinase domain = FGFR1 WT kinase domain (Homo sapiens, UniProt P11362); assay: Isothermal titration calorimetry, FGFR1 WT; settings: ITC, 20 °C
FGFR3 WT kinase domain = FGFR3 WT kinase domain (Homo sapiens, UniProt P22607); assay: Isothermal titration calorimetry, FGFR3 WT; settings: ITC, 20 °C
[9] = target: T1, FGFR1 V561M kinase domain; assay: Isothermal titration calorimetry, FGFR1 V561M
[10] = target: FGFR1 Y563C kinase domain (Homo sapiens, UniProt P11362, Y563C); assay: Isothermal titration calorimetry, FGFR1 Y563C

Which “effect on cell viability” value [1] does the source give for `CN1CCN(c2ccc3nc(-c4c(N)c5c(F)cccc5[nH]c4=O)[nH]c3c2)CC1` [TKI258] here?
Its value is “very little or no effect”.

With `Cc1ccc(C(=O)Nc2ccc(CN3CCN(C)CC3)c(C(F)(F)F)c2)cc1C#Cc1cnc2cccnn12` [AP24534] as the compound, how does the inhibition at 1 µM ([1]; Mus musculus, NIH3T3, read-out: inhibitory effects under control condition) read?
Its inhibition at 1 µM is greater than 60%.

And the IC50 (SYK)?
The IC50 was 0.2 to 0.4 nM.

And the IC50 (FGFR)?
Its IC50 is 1 to 2.5 nM.

What about the IC50 (PDGFα) of the same compound?
The IC50 was 1 to 2.5 nM.

And the IC50 [2]?
Its IC50 is 1 to 2.5 nM.

What about the “change of inhibitor sensitivity by V561M” value [3] of the same compound?
Its value is “marginal effect on sensitivity”.

For `C=CC(=O)Nc1ccc(CN2C(=O)N(c3cc(OC)cc(OC)c3)Cc3cnc(Nc4ccc(N5CCN(C)CC5)cc4)nc32)cc1` [FIIN2], which “efficacy towards gatekeeper mutations” value [4] is on record?
The value was “proved effective”.

Which results are given for AZD4547?
effect on cell viability [1]: very little or no effect; effect on cell viability [5]: most effective; effect on cell viability [6]: completely ineffective; effect on cells [7]: only marginally affected; change of inhibitor sensitivity by V561M [3]: clear reduction of sensitivity

For `CCN(CC)CCCCNc1ncc2cc(-c3cc(OC)cc(OC)c3)c(NC(=O)NC(C)(C)C)nc2n1` [PD173074], which “effect on cell viability” value [1] is on record?
The value was “very little or no effect”.

What about the “effect on cell viability” value [5] of the same compound?
Its value is “selectively inhibited”.

And the “effect on cell viability” value [8]?
The value was “unaffected”.

And the “-TΔS” value (FGFR1 WT kinase domain)?
Its value is -3.7 ± 0.1 kcal/mol.

And the “n (number of binding sites)” value (FGFR1 WT kinase domain)?
The value was 0.91 ± 0.0007.

What about the ΔG (FGFR1 WT kinase domain) of the same compound?
The ΔG was -11.4 ± 0.09 kcal/mol.

What about the ΔH (FGFR1 WT kinase domain) of the same compound?
The ΔH was -7.7 ± 0.01 kcal/mol.

And the “-TΔS” value (FGFR3 WT kinase domain)?
Its value is -0.1 ± 0.32 kcal/mol.

And the “n (number of binding sites)” value (FGFR3 WT kinase domain)?
The value was 0.89 ± 0.002.

And the ΔG (FGFR3 WT kinase domain)?
Its ΔG is -11.5 ± 0.25 kcal/mol.

And the ΔH (FGFR3 WT kinase domain)?
Its ΔH is -11.4 ± 0.07 kcal/mol.

What about the “-TΔS” value ([9]; ITC, 20 °C) of the same compound?
Its value is -5.3 ± 0.14 kcal/mol.

What about the “n (number of binding sites)” value ([9]; ITC, 20 °C) of the same compound?
Its value is 0.80 ± 0.006.

What about the ΔG ([9]; ITC, 20 °C) of the same compound?
Its ΔG is -8.7 ± 0.10 kcal/mol.

What about the ΔH ([9]; ITC, 20 °C) of the same compound?
Its ΔH is -3.4 ± 0.04 kcal/mol.

What about the “ΔΔGexp (binding free energy difference, mutant − WT)” value ([9]; V561M versus WT, from ITC, standard deviation in parentheses) of the same compound?
Its value is 2.73 ± 0.18 kcal/mol and 2.73 (0.18) kcal/mol.

And the “-TΔS” value ([10]; ITC, 20 °C)?
Its value is -4.1 ± 0.14 kcal/mol.

And the “n (number of binding sites)” value ([10]; ITC, 20 °C)?
Its value is 0.66 ± 0.002.

And the ΔG ([10]; ITC, 20 °C)?
The ΔG was -10.5 ± 0.11 kcal/mol.

And the ΔH ([10]; ITC, 20 °C)?
The ΔH was -6.4 ± 0.03 kcal/mol.

And the “ΔΔGexp (binding free energy difference, mutant − WT)” value ([10]; Y563C versus WT, from ITC, uncertainty in parentheses)?
Its value is 0.97 kcal/mol.

What about the “change of inhibitor sensitivity by V561M” value [3] of the same compound?
The value was “clear reduction of sensitivity”.

What about the “reduction of potency on the gatekeeper variant” value ([3]; V561M versus WT FGFR1) of the same compound?
The value was “up to 225 fold”.

Which “efficacy towards gatekeeper mutations” value [4] does the source give for `C=CC(=O)Nc1ccc(CN(C(=O)Nc2c(Cl)c(OC)cc(OC)c2Cl)c2cc(Nc3ccc(N4CCN(C)CC4)cc3)ncn2)cc1` [FIIN3] here?
Its value is “proved effective”.
